Measured values reported in paper PMC2747590 (Chemical biology & drug design, 2009).
Where two headings read alike, the source gives them in different places.

What was measured:
in vitro = conditions: male, Sprague-Dawley, rat, microsomes, pH 7.4
[1] = mice, single intraperitoneal dose at the same dose level (100 mg/kg); cited from earlier work
metastasis = conditions: 50 mg/kg/day; cited from earlier work
[2] = 14-day repeated dose toxicity study in mice; conditions: 5, 10 and 25 mg/kg/day i.p. for 14 days; normal behavior and food consumption
[3] = mouse, in vivo, ip
in vivo = conditions: female, BALB/c, mouse, ip
[4] = Plasma levels in mice after single intraperitoneal dose; conditions: female, BALB/c, mouse, in vivo, ip, 100 mg/kg
gelatinases = conditions: cited from earlier work

Q: What does the source list for `O=S(=O)(CC1CS1)c1ccc(Oc2ccccc2)cc1` (stereo not drawn) [Compound 1, (4-phenoxyphenylsulfonyl)methylthiirane]?
A: remaining at 0.25 h, 25 μM (in vitro): 0.5%; plasma levels at 1 h [1]: < 1 µM; efficacy in mouse models of metastasis (metastasis): has shown efficacy

Q: For `CS(=O)(=O)Oc1ccc(Oc2ccc(S(=O)(=O)CC3CS3)cc2)cc1` (stereo not drawn) [Compound 2, 4-(4-(Thiiranylmethylsulfonyl)phenoxy)-phenyl methanesulfonate], which “toxicity upon multiple-dose administration” value [2] is on record?
A: The value was “No toxicity was observed”.

Q: And the “Concentration of 2 at 1 h” value ([3]; female, BALB/c, 25 mg/kg/day, 1 h)?
A: The value was 3.2 µM.

Q: What about the “Concentration of 2 at 1 h” value ([3]; 5 mg/kg/day) of the same compound?
A: The value was “LOQ”.

Q: What about the “Concentration of 2 at 1 h” value ([3]; 10 mg/kg/day) of the same compound?
A: Its value is “LOQ”.

Q: And the concentration at 1 h (in vivo; 5 mg/kg/day)?
A: Its concentration at 1 h is less than 1 µM.

Q: And the concentration at 1 h (in vivo; 10 mg/kg/day)?
A: The concentration at 1 h was less than 1 µM.

Q: And the concentration at 1 h (in vivo; 25 mg/kg/day)?
A: The concentration at 1 h was 3.2 µM.

Q: And the concentration at 1 h [4]?
A: Its concentration at 1 h is 70.5 µM.

Q: For `O=S(=O)(CC1CS1)c1ccc(Oc2ccc(O)cc2)cc1` (stereo not drawn) [p-hydroxy variant], which “gelatinase inhibitory activity relative to parent 1” value (gelatinases) is on record?
A: Its value is “more active gelatinase inhibitor than the parent 1”.
